Experimental findings from patent US20250257086A1, “EGFR DEGRADATION AGENT” (Beijing Tide Pharmaceutical Co., Ltd., priority 2022, published 2025) are described below.

Type in all cases: cell-based
The target in test [1] is T1, EGFR^L858R/T790M/C797S protein (Homo sapiens, UniProt P00533, C797S/L858R/T790M).
T1 construct: expressed in transfected cells; host or cells: Ba/F3 (EGFR^L858R/T790M/C797S) cells
Kind of test: Induction of EGFR L858R/T790M/C797S protein degradation in Ba/F3 cells (Alpha counts). As to conditions: 24h treatment; for degradation effect on EGFR^L858R/T790M/C797S protein (in words): FIG. 1 and 2; for DC50: range 1 nM to 1000 nM, FIG. 1 and 2, read-out: DC50, reduction of EGFR^L858R/T790M/C797S protein level. As to the method: (§1) Ba/F3 (EGFR^L858R/T790M/C797S) and Ba/F3 (EGFR^Del19/T790M/C797S) cells were cultured according to the culture conditions recommended by ATCC, and analyzed by index.
(§2) Culture conditions: incubated at 37° C., 95% air, 5% CO2 incubator.
(§3) (2) Compound Stock Solution: 10 mM Stock Solution in DMSO, Stored at −20° C.
(§4) The cells in the cell culture bottle were collected, and the cells with viability of >90% can be used in the assay. Cells were seeded in a 96-well plate with 40 μL cells, 1*10^5 cells/well.
(§5) The compounds were serially diluted 3× with DMSO, with the starting concentrations of the compounds being 1.0 mM (EGFR^L858R/T790M/C797S assay) and 10 mM (EGFR^Del19/T790M/C797S assay), respectively, into 10 concentrations to prepare working solutions.
(§6) (5) Compound was Pipetted into the 96-Well Plate to Treat Cells in a 37° C., 95% Air, 5% CO2 Incubator for 24h.
(§7) • 1) 1 μg/mL EGF stimulated cells for 10 min; • 2) After the compound treatment was completed, lysis buffer was added to lyse cells; 10 μL of cell lysate was transferred to the 384-well plate; in addition, control lysate, negative control and 5 μL of acceptor mix were added to the 384-well plate; The plate was shaken on a shaker for 1-2 min; • 3) 5 μL of donor mix was added to each well; the 384-well plate was sealed, shaken on a shaker for 1-2 min, and left in the dark at room temperature overnight; then the plate was read with ELISA reader.
(§8) Alpha counts were fitted by logarithmic treatment of compound concentration with Graphpad Prism 8.0.
(§9) [formula] • X: logarithm of compound concentration; Y: Alpha Counts.

For test [2], the target named is Ba/F3 (EGFR^L858R/T790M/C797S) cells (Homo sapiens, UniProt P00533, T790M/C797S/L858R, cells depend on it). Kind of test: Antiproliferative activity on Ba/F3 (EGFR L858R/T790M/C797S) cells (CTG). The essentials:
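Luminescent CellTiter-Glo read-out on Ba/F3 cells carrying EGFR L858R/T790M/C797S. Inhibition normalised between untreated vehicle and a 10 μM positive drug. IC50 taken from a variable-slope four-parameter fit of inhibition against log compound concentration.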

The subject of test [3] is H1975 (EGFR^L858R/T790M) cells. Kind of test: Antiproliferative activity on H1975 (EGFR L858R/T790M) cells (CTG). As to conditions: Homo sapiens, read-out: IC50 (nM), antiproliferative activity. The method, then: 30 nL of the compound dilution was added to a 384-well plate by Echo (Labcyte, Echo550).
The percent inhibition rate (% inhibition) was calculated by the following formula
[formula] • LUMcmpd: Luminescence value of assay compound. • LUMpositive: Average LUM value of positive drug with a concentration of 10 μM. • LUMvehicle: Average LUM value of negative control group without drug treatment.
The nonlinear regression curve (dose response-variable slope) between the value of inhibition rate (%) and the logarithm of compound concentration was fitted with graphpad prism 8.0, the effect dose curve of compound was drawn, and the IC50 value was calculated.
Y=Bottom+(Top−Bottom)/(1+10^((Log IC50−X)*HillSlope)) • X-axis: logarithm of compound concentration; Y axis: inhibition rate (inhibition).

In test [4] the target is T2, EGFR^Del19/T790M/C797S protein (Homo sapiens, UniProt P00533, C797S/DEL746-750/T790M).
T2 construct: expressed in transfected cells; host or cells: Ba/F3 (EGFR^Del19/T790M/C797S) cells
Kind of test: Induction of EGFR Del19/T790M/C797S protein degradation in Ba/F3 cells (Alpha counts). As to conditions: 24h treatment; for degradation effect on EGFR^Del19/T790M/C797S protein (in words): FIG. 3; for DC50: range 1 nM to 10000 nM, FIG. 3, read-out: DC50, reduction of EGFR^Del19/T790M/C797S protein level. As to the method: as §1, §2, §3, §4, §5, §6, §7, §8, §9

Setting [5] is: 72h incubation, CTG luminescence, read-out: IC50 (nM), antiproliferative activity.
Where [6] appears, read: NCI-H1975, H1975 (EGFR^L858R/T790M) cells, 72h incubation, CTG luminescence.

Structures are written as SMILES. Where two headings read alike, the source gives them in different places.

T1 sequence (P00533 25-1210 T790M/C797S/L858R): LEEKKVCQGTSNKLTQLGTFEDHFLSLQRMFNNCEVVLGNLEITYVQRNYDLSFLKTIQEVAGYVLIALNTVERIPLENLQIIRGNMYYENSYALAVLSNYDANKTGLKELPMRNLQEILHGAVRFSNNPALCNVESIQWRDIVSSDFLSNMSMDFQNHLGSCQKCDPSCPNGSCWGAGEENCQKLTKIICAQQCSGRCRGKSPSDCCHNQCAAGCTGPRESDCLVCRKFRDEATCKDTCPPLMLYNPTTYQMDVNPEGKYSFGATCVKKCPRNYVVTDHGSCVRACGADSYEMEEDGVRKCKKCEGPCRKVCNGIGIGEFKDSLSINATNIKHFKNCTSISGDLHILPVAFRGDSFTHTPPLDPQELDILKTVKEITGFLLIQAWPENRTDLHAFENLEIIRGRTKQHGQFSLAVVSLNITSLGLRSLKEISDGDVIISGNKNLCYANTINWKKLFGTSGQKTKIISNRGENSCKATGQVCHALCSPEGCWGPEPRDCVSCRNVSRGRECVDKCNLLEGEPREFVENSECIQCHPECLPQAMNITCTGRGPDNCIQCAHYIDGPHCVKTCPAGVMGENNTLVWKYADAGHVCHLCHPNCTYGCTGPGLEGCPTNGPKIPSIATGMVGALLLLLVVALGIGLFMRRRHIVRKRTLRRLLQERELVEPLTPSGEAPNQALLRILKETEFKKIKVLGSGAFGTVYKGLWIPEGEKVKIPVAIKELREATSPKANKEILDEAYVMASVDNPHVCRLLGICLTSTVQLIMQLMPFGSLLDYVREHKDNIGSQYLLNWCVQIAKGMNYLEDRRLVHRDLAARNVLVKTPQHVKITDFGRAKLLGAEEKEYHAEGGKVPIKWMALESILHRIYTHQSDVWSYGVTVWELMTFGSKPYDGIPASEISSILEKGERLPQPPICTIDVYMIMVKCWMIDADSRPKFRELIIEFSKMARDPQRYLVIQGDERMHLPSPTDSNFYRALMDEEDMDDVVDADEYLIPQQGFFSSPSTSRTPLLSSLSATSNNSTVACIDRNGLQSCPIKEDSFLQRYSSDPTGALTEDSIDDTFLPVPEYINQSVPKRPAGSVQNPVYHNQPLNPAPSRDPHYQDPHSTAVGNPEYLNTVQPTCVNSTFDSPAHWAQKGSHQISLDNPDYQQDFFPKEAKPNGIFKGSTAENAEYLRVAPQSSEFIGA
Chain of Ba/F3 (EGFR^L858R/T790M/C797S) cells (P00533 whole entry T790M/C797S/L858R): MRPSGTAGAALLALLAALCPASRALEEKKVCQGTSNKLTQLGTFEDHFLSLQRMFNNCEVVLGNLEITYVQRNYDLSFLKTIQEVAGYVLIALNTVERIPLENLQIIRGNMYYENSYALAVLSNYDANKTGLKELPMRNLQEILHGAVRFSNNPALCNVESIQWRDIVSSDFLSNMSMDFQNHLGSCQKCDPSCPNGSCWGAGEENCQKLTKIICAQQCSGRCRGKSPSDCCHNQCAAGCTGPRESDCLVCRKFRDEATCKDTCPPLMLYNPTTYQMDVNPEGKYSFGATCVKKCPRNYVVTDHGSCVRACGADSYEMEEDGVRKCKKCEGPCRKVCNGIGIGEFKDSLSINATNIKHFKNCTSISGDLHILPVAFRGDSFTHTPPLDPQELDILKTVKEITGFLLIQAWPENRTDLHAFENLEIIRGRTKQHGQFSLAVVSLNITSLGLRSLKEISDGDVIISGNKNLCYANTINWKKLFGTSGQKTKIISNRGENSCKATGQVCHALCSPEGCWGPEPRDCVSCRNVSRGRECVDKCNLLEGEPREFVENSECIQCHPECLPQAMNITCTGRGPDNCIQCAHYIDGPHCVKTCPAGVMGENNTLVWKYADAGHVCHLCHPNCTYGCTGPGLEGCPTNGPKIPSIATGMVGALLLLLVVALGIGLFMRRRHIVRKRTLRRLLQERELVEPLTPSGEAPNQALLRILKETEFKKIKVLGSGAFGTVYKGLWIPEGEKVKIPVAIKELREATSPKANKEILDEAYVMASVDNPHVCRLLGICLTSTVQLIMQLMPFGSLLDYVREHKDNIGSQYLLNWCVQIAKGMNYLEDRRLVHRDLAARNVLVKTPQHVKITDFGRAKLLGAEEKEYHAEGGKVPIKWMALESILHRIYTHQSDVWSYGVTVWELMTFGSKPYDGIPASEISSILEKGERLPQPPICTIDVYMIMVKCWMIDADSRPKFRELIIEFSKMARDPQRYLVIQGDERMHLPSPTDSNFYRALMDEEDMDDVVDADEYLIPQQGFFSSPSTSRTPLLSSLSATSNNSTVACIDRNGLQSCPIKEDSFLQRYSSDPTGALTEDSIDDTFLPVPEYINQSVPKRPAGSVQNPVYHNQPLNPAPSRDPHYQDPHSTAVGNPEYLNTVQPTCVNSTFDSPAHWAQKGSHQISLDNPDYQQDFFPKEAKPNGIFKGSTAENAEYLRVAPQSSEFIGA
T2 sequence (P00533 with tags, fused parts or gaps DEL746-750/T790M/C797S): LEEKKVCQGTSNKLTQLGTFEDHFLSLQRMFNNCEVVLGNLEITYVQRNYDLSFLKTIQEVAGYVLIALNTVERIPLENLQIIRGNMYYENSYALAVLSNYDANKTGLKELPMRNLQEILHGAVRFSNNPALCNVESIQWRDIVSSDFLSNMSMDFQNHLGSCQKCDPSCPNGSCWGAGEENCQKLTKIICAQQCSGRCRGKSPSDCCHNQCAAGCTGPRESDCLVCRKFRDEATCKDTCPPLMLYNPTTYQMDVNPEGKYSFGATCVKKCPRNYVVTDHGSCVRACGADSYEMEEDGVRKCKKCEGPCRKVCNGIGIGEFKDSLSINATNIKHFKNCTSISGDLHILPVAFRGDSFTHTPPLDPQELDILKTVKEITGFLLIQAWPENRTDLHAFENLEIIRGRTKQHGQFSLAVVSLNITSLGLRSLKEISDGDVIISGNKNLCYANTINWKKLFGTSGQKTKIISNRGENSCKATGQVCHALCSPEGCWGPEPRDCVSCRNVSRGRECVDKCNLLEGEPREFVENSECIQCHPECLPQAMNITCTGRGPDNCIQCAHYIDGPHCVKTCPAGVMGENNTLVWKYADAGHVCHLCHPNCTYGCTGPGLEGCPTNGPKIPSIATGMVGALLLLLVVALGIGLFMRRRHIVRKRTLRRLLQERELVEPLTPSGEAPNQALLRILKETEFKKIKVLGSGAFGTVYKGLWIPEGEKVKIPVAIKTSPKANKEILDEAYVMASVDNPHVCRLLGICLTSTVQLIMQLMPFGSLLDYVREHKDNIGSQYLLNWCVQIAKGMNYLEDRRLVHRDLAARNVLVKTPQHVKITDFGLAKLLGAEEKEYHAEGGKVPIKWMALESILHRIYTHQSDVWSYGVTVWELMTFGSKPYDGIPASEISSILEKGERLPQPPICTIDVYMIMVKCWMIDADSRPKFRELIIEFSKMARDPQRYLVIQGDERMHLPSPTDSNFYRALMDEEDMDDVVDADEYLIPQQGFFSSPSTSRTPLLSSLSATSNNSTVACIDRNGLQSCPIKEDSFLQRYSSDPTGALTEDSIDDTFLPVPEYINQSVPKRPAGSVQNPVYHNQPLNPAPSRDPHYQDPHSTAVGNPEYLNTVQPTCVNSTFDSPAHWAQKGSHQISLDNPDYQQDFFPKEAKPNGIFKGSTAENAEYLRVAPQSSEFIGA

Take `C=C(F)C(=O)Nc1cc(Nc2ncc(Cl)c(Nc3ccccc3P(C)(C)=O)n2)c(OC)cc1N1CCC(N2CCN(C)CC2)CC1` [Comparative compound L527, reference compound]: the “degradation effect on EGFR^L858R/T790M/C797S protein (in words)” value in test [1] was “no degradation effect”. The GI50 in test [2] (setting [5]) came to 458 nM.

For orientation: IC50 means the concentration at which inhibition is half-maximal. For the compound `COc1cc(N2CCC(N3CCN(C)CC3)CC2)ccc1Nc1ncc(Cl)c(Nc2ccccc2P(C)(C)=O)n1` [Brigatinib, reference compound], the IC50 in test [3] (setting [6]) came out at 747 nM. For the same compound, the “degradation effect on EGFR^L858R/T790M/C797S protein (in words)” value in test [1] is recorded as “no degradation effect”. Moreover, the GI50 in test [2] (read-out: IC50 (nM), antiproliferative activity, 72h incubation, CTG luminescence) came out at 355 nM.

In the case of `COc1cc(N2CCC(N3CCN(CCCC#Cc4cccc5c4CN(C4CCC(=O)NC4=O)C5=O)CC3)CC2)ccc1Nc1ncc(Cl)c(Nc2ccccc2P(C)(C)=O)n1` (stereo not drawn) [Comparative compound C126], the IC50 in test [3] (setting [6]) was 1390 nM.

On to `C=CC(=O)Nc1cc(Nc2ncc(Br)c(Nc3ccccc3P(C)(C)=O)n2)c(OC)cc1N1CCC(N2CCN(CCCC#Cc3cccc4c3CN(C3CCC(=O)NC3=O)C4=O)CC2)CC1` (stereo not drawn) [Compound D478, N-(5-((5-bromo-4-((2-(dimethylphosphoryl)phenyl)amino)pyrimidin-2-yl)amino)-2-(4-(4-(5-(2-(2,6-dioxopiperidin-3-yl)-1-oxoisoindolin-4-yl)pent-4-yn-1-yl)piperazin-1-yl)piperidin-1-yl)-4-methoxyphenyl)acrylamide], for which the IC50 in test [3] (setting [6]) was 17.6 nM. Also, the GI50 in test [2] (setting [5]) was 30.3 nM.

Turning to `CC#CC(=O)Nc1cc(Nc2ncc(Cl)c(Nc3ccccc3P(C)(C)=O)n2)c(OC)cc1N1CCC(N2CCN(CCCC#Cc3cccc4c3CN(C3CCC(=O)NC3=O)C4=O)CC2)CC1` (stereo not drawn) [Compound D058, N-(5-((5-chloro-4-((2-(dimethylphosphoryl)phenyl)amino)pyrimidin-2-yl)amino)-2-(4-(4-(5-(2-(2,6-dioxopiperidin-3-yl)-1-oxoisoindolin-4-yl)pent-4-yn-1-yl)piperazin-1-yl)piperidin-1-yl)-4-methoxyphenyl)but-2-ynamide], the IC50 in test [3] (setting [6]) came to 14.6 nM. Also, the GI50 in test [2] (setting [5]) is 35.6 nM. In test [4], the “degradation effect on EGFR^Del19/T790M/C797S protein (in words)” value is given as “significant degradation effects” and the DC50 came to 25.1 nM.

In the case of `C=C(F)C(=O)Nc1cc(Nc2ncc(Br)c(Nc3ccccc3P(C)(C)=O)n2)c(OC)cc1N1CCC(N2CCN(CCCC#Cc3cccc4c3CN(C3CCC(=O)NC3=O)C4=O)CC2)CC1` (stereo not drawn) [Compound D078, N-(5-((5-bromo-4-((2-(dimethylphosphoryl)phenyl)amino)pyrimidin-2-yl)amino)-2-(4-(4-(5-(2-(2,6-dioxopiperidin-3-yl)-1-oxoisoindolin-4-yl)pent-4-yn-1-yl)piperazin-1-yl)piperidin-1-yl)-4-methoxyphenyl)-2-fluoroacrylamide], in test [1], the “degradation effect on EGFR^L858R/T790M/C797S protein (in words)” value is “significant degradation effect” and the DC50 worked out at 84.7 nM. Further, in test [2] (setting [5]), the GI50 was 19.2 nM.

Consider `C=CC(=O)Nc1cc(Nc2nccc(-c3cn(C)c4ccccc34)n2)c(OC)cc1N(C)CCN(C)C` [Osimertinib], for which the IC50 in test [3] (NCI-H1975, 72 h) turned out to be 10.7 nM.

For the compound `C=C(F)C(=O)Nc1cc(Nc2ncc(Cl)c(Nc3ccccc3P(C)(C)=O)n2)c(OC)cc1N1CCC(N2CCN(CCCC#Cc3cccc4c3CN(C3CCC(=O)NC3=O)C4=O)CC2)CC1` (stereo not drawn) [Compound D552, N-(5-((5-chloro-4-((2-(dimethylphosphoryl)phenyl)amino)pyrimidin-2-yl)amino)-2-(4-(4-(5-(2-(2,6-dioxopiperidin-3-yl)-1-oxoisoindolin-4-yl)pent-4-yn-1-yl)piperazin-1-yl)piperidin-1-yl)-4-methoxyphenyl)-2-fluoroacrylamide], in test [1], the “degradation effect on EGFR^L858R/T790M/C797S protein (in words)” value is on record as “significant degradation effect” and the DC50 was found to be 117 nM. Besides, in test [2] (setting [5]), the GI50 is 37.3 nM. For the same compound, in test [4], the “degradation effect on EGFR^Del19/T790M/C797S protein (in words)” value is “significant degradation effects” and the DC50 was 29.7 nM.

With `CC#CC(=O)Nc1cc(Nc2ncc(Cl)c(Nc3ccccc3P(C)(C)=O)n2)ccc1N1CCC(N2CCN(CCCC#Cc3cccc4c3CN(C3CCC(=O)NC3=O)C4=O)CC2)CC1` (stereo not drawn) [Compound D665, N-(5-((5-chloro-4-((2-(dimethylphosphoryl)phenyl)amino)pyrimidin-2-yl)amino)-2-(4-(4-(5-(2-(2,6-dioxopiperidin-3-yl)-1-oxoisoindolin-4-yl)pent-4-yn-1-yl)piperazin-1-yl)piperidin-1-yl)phenyl)but-2-ynamide], in test [2] (setting [5]), the GI50 was found to be 10.3 nM.

As for `CCCC#CC(=O)Nc1cc(Nc2ncc(Cl)c(Nc3ccccc3P(C)(C)=O)n2)c(OC)cc1N1CCC(N2CCN(CCCC#Cc3cccc4c3CN(C3CCC(=O)NC3=O)C4=O)CC2)CC1` (stereo not drawn) [Compound D631, N-(5-((5-chloro-4-((2-(dimethylphosphoryl)phenyl)amino)pyrimidin-2-yl)amino)-2-(4-(4-(5-(2-(2,6-dioxopiperidin-3-yl)-1-oxoisoindolin-4-yl)pent-4-yn-1-yl)piperazin-1-yl)piperidin-1-yl)-4-methoxyphenyl)hex-2-ynamide], in test [2] (setting [5]), the GI50 is 48.1 nM.

As to `CP(C)(=O)c1ccccc1Nc1nc(Nc2cc(NC(=O)/C=C/C(F)(F)F)c(N3CCC(N4CCN(CCCC#Cc5cccc6c5CN(C5CCC(=O)NC5=O)C6=O)CC4)CC3)cc2OCC(F)(F)F)ncc1Br` (stereo not drawn) [Compound D847, (E)-N-(5-((5-bromo-4-((2-(dimethylphosphoryl)phenyl)amino)pyrimidin-2-yl)amino)-2-(4-(4-(5-(2-(2,6-dioxopiperidin-3-yl)-1-oxoisoindolin-4-yl)pent-4-yn-1-yl)piperazin-1-yl)piperidin-1-yl)-4-(2,2,2-trifluoroethoxy)phenyl)-4,4,4-trifluorobut-2-enamide], the GI50 in test [2] (setting [5]) was found to be 16.3 nM.
